Reference: patent US20240415878A1, “Compositions and Methods for Modulating Mitochondrial Function” (Board of Regents, The University of Texas System, priority 2021, published 2024)

Legend:
HIF-1α [1] = tested on: HIF-1α
From the text: HIF-1α is stabilized in Mrs2−/− mice. To examine the intrinsic role of Mrs2, Mrs2^−/− mice were challenged to LPS-induced inflammatory response. It was noticed that there was a barely detectable HIF-1α stabilization in control but a significant HIF-1α protein accumulation following LPS stimulation in Mrs2^−/− hepatocytes (Daw et al., 2020). […] It was envisioned that loss of Mrs2 in hepatocyte mitochondria might control metabolite fluxes that regulates HIF-1α stability under normoxic conditions. HIF-1α is the most commonly studied transcription factor that responds to oxygen tension and its stabilization controls numerous metabolic cascades, including glycolysis and oxidative phosphorylation (Kaelin and Ratcliffe, 2008; Lum et al., 2007; Semenza, 2013). A targeted metabolite screen was conducted to identify whether these metabolites potentially altered in Mrs2^−/− control HIF-1α stabilization. WT hepatocytes were treated with the PHD inhibitor FG-4952 for 6 hours in the presence or absence of metabolites (Buckley et al., 2012). […] Next it was explored whether citric acid mediated HIF-1α destabilization is a hydroxylation dependent mechanism by reconstitution of hydroxylation-dead mutant HIF-1α in COS-7 cells (Yan et al., 2007). […] Next tested the potency of citric acid and sodium citrate was tested. Hepatocytes isolated from WT or Mrs2^−/− mice were treated for 6 hours. HIF-1α stabilization was less affected by di- or tri-sodium citrate than by citric acid (FIG. 9G). […] The citric acid-mediated HIF-1α destabilization was intact in multiple chemical modalities (FIG. 9H) and the intracellular chelation of Mg^2+ ions suppressed FG-4952-induced HIF-1α stabilization (FIG. 9I). […] Furthermore, COS-7 cells were more sensitive to the HIF-1α stabilizing effect compared to hepatocytes. […] Next HIF-1α abundance was tested in liver tissues harvested from dietary cohorts. HIF-1α protein expression/stabilization was prominent in both Mrs2^−/− and Mrs2^−/− WD, whereas HIF-1α protein was nearly completely absent in WT WD (FIG. 9M). This supports the elevation of HIF-1α protein level as a key mechanism driving transcription changes in Mrs2^−/− WD livers.
Immunoblotting. Crushed tissues were homogenized in lysis buffer (ThermoFisher) on ice for one minute (20-30 strokes) using an automatic Dounce homogenizer set to 2000 RPM. Whole cell lysate was prepared in lysis buffer (Abcam) using 3 sets of 3-second sonication (power level 3) intervals on ice. Protein concentration was estimated using Pierce BCA assay kit and samples were prepared and heated for 90° C. for 5 minutes. Equal amounts of protein were loaded and separated on 4%-12% Bis-Tris polyacrylamide gel (Thermo Fisher Scientific), transferred to a PVDF membrane, blocked for 1-2 h using 5% fat free skim milk, washed and finally, probed with corresponding antibodies as specified below. Antibodies were from Cell Signaling Technology (HIF-1α and Hydroxy HIF-1α dilution 1:3000, MCU dilution 1.5000, MICU1 dilution 1:3000), Abcam Abcam (CPT-1a, CPT-2, OXPHOS cocktail dilution 1:3000), ZYMED Laboratories (β-actin; dilution 1:1,000), and Amersham (secondary antibodies conjugated with peroxidase). Development was done using X-ray film using a series of timed exposures and Image J was used for densitometric analysis on scanned film images.

HIF-1α [2] = assay: HIF-1α stabilization in COS-7 cells; assay type: cell-based
From the text: HIF-1α is stabilized in Mrs2−/− mice. To examine the intrinsic role of Mrs2, Mrs2^−/− mice were challenged to LPS-induced inflammatory response. It was noticed that there was a barely detectable HIF-1α stabilization in control but a significant HIF-1α protein accumulation following LPS stimulation in Mrs2^−/− hepatocytes (Daw et al., 2020). […] It was envisioned that loss of Mrs2 in hepatocyte mitochondria might control metabolite fluxes that regulates HIF-1α stability under normoxic conditions. HIF-1α is the most commonly studied transcription factor that responds to oxygen tension and its stabilization controls numerous metabolic cascades, including glycolysis and oxidative phosphorylation (Kaelin and Ratcliffe, 2008; Lum et al., 2007; Semenza, 2013). A targeted metabolite screen was conducted to identify whether these metabolites potentially altered in Mrs2^−/− control HIF-1α stabilization. WT hepatocytes were treated with the PHD inhibitor FG-4952 for 6 hours in the presence or absence of metabolites (Buckley et al., 2012). […] Next it was explored whether citric acid mediated HIF-1α destabilization is a hydroxylation dependent mechanism by reconstitution of hydroxylation-dead mutant HIF-1α in COS-7 cells (Yan et al., 2007). […] Next tested the potency of citric acid and sodium citrate was tested. Hepatocytes isolated from WT or Mrs2^−/− mice were treated for 6 hours. […]

HIF-1α [3] = assay: HIF-1α stabilization in human kidney cell line (HK-2); assay type: cell-based; conditions: HK-2 treated with CoCl2, metabolites 6 hours
Mrs2 [4] = biological target: T1, Mrs2 (Mus musculus, UniProt Q5NCE8); assay: Mrs2-mediated mMg2+ uptake in digitonin permeabilized hepatocytes (Mag-Green, extramitochondrial Mg2+ clearance); assay type: cell-based, murine; conditions: permeabilized cell system
T1 construct: endogenous in cells; host or cells: primary murine hepatocytes (C57BL/6J mice)
T1 sequence (Q5NCE8 54-434): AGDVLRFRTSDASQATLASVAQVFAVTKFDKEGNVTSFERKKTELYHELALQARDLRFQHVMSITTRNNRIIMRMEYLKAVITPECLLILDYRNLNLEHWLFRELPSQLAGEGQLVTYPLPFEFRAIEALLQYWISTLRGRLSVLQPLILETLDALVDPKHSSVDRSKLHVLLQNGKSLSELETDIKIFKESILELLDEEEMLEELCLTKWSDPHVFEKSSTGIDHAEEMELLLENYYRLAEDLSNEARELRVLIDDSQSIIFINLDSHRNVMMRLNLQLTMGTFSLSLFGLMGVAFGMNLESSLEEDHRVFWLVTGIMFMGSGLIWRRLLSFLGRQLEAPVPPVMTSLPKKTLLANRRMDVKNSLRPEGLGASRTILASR
Description: (§1) Bacterial CorA forms a pentameric complex that selectively drives Mg2+ uptake in an electrogenic manner. […] Mrs2 is the eukaryotic homologue of CorA and contains two transmembrane domains with a well-conserved F/Y-G-M-N motif; therefore, CorA blockers were tested to determine if they alter Mrs2-mediated mMg^2+ uptake (Moomaw and Maguire, 2008). Digitonin permeabilized hepatocytes were utilized to measure the inhibitory effect and determine its IC50. Permeabilized cells were treated with CPACC followed by a 1 mM bolus of MgCl2 (FIG. 10B). A 1 mM Mg^2+ bolus was added after baseline recording, and the extramitochondrial Mg^2+ clearance was used as a read-out for Mrs2-mediated mMg^2+ uptake using Mag-Green as a Mg^2+ indicator. […] We next investigated Mrs2 inhibition in intact hepatocytes loaded with Mag-Green-AM. […] Next CPACC was examined to determine if it had any effect on MCU-mediated mCa^2+ uptake in permeabilized cells. […] The availability of the compound to intact cells was measured using graphite furnace atomic absorption spectroscopy (GFAAS) and bicinchoninic acid in parallel.
Spectrofluorimetric measurement of mitochondrial Mg^2+ and Ca^2+ dynamics and citrate mediated MagGreen fluorescence quenching. Fluorescence measurements were conducted in a multiwavelength excitation dual wavelength emission spectrofluorometer (Delta RAM, PTI, HORIBA). […]

Mrs2 [5] = biological target: T1, Mrs2; assay: Mrs2 inhibition in intact hepatocytes loaded with Mag-Green-AM, confocal, L-lactate stimulation; assay type: cell-based, murine
Description: as §1, with “parallel. […] Encouraged by the potent inhibitory effect of CPACC and cellular permeability, we next measured the cytotoxicity of CPACC in cells. […]” for “parallel.”
Evaluation of dose dependent Mrs2 inhibition by confocal live cell imaging system. […] Data was quantified using Leica Application Suite X.

Row | Compound | response of hepatocytes from Mrs2^−/− mice to the destabilizing effect (HIF-1α [1]) | HIF-1α destabilizing effect in homogenate (HIF-1α [1]; FG-4592 treated WT hepatocyte homogenate) | time course of HIF-1α destabilization (HIF-1α [1]; FG-4592 treated hepatocytes) | effect on HIF-1α stabilized by PHD inhibitor (HIF-1α [1]; WT hepatocytes, FG-4952, 6 hours) | concentration at which HIF-1α destabilization was observed (HIF-1α [1]; WT hepatocytes, PHD inhibitor, 6 hours) | constitutively stabilized (hydroxylation-dead) HIF-1α mutant (HIF-1α [2]) | FG-4592 dependent HIF-1α stabilization (HIF-1α [2]; 10 mM) | HIF-1α destabilizing activity (HIF-1α [3]) | inhibitory effect on Mrs2 activity (Mrs2 [4]) | effect on Mrs2 in intact hepatocytes (Mrs2 [5])
1 | O=C(O)CC(O)(CC(=O)O)C(=O)O [citric acid] | partially resistant | partly maintained | very rapid and robust | destabilized HIF-1α | ≥ 6 mM | unaffected | completely blunted | replicates the observations in hepatocytes |  | 
2 | N.N.N.N.N.N.[Cl-].[Cl-].[Cl-].[Co+3] [cobalt(III)hexaammine, Hexaamminecobalt (III) chloride, reference compound] |  |  |  |  |  |  |  |  | limited inhibition | absent
